32 molecules from patent US20240316047A1, “INHIBITORS OF RNA HELICASE DHX9 AND USES THEREOF” (ACCENT THERAPEUTICS, INC., priority 2022, published 2024) can be followed below.

For this assay, the target named is Human recombinant DHX9 protein (Homo sapiens (Human), UniProt Q08211). The experiment in a line: DHX9 ATPase assay (ADP-Glo). Format: biochemical. Particulars: for IC50: read-out: DHX9 Biochemical Inflection Point.
Human recombinant DHX9 protein, sequence (Q08211 whole entry): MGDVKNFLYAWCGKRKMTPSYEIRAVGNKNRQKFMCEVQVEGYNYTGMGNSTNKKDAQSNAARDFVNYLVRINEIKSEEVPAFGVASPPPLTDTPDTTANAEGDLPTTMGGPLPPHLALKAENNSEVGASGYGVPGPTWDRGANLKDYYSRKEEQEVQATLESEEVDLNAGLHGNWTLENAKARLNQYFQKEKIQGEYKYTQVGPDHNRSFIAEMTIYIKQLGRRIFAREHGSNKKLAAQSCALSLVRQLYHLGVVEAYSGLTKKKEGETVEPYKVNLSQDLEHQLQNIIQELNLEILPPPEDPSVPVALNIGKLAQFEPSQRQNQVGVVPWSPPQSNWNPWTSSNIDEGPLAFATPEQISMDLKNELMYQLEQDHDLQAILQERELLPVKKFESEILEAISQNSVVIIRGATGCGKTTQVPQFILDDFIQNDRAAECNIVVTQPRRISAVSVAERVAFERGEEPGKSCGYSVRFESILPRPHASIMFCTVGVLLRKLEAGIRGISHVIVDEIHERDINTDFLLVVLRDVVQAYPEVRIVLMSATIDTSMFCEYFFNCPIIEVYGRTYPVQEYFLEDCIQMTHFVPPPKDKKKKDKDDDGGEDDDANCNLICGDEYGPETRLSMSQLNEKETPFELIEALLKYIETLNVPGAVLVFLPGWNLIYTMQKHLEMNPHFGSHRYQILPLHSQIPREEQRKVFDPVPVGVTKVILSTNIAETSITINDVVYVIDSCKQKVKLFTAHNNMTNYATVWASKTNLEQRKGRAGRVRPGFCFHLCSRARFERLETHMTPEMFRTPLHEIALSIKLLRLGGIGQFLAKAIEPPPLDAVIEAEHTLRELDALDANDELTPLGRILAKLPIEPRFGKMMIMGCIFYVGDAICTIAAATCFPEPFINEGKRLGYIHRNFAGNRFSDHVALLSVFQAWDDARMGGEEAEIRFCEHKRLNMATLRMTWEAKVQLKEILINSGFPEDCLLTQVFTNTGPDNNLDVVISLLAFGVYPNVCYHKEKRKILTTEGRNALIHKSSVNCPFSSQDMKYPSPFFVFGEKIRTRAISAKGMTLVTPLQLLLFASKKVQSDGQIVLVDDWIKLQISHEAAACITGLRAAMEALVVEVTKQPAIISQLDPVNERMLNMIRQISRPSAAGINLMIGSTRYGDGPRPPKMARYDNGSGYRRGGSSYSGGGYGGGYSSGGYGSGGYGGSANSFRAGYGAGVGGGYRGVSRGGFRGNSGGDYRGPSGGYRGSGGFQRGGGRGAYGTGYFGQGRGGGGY

Consider `CS(=O)(=O)Nc1cc(F)cc(NC(=O)c2cc(-c3ccccc3)cs2)c1` [Example 73], for which the “DHX9 Biochemical Max Inhibition” value is given as 63% and the IC50 worked out at 189 nM.

`Cc1sc(C(=O)Nc2cc(Cl)cc(NS(C)(=O)=O)c2)cc1-c1cn(Cc2ccccc2)nn1` [Example 235]: the “DHX9 Biochemical Max Inhibition” value stood at 78.1% and the IC50 is 35.8 nM.

`CS(=O)(=O)Nc1cc(Cl)cc(NC(=O)c2cnn(C3CC4(COC4)C3)c2)c1` [Example 128]: the “DHX9 Biochemical Max Inhibition” value is listed as 57.3% and the IC50 was 173 nM.

Consider `Cc1cc(C(=O)Nc2cc(Cl)cc(NS(C)(=O)=O)c2)cn1-c1ccc(N2CCN(C(=O)N(C)C)CC2)cn1` [Example 284], for which the “DHX9 Biochemical Max Inhibition” value is 79.6% and the IC50 was 4.1 nM.

On to `Cc1sc(C(=O)Nc2cc(Cl)cc(NS(=O)(=O)CCO)c2)cc1-c1ncc(N2CC(C(F)(F)F)C2)cc1F` [Example 529], for which the “DHX9 Biochemical Max Inhibition” value worked out at 57.3 and the IC50 was found to be 163 nM.

With `Cn1cc(C(=O)Nc2cc(Cl)cc(NS(C)(=O)=O)c2)cc1-c1ncc(F)cc1F` [Example 540, N-(3-chloro-5-methanesulfonamidophenyl)-5-(3,5-difluoropyridin-2-yl)-1-methyl-1H-pyrrole-3-carboxamide], the “DHX9 Biochemical Max Inhibition” value is 67.5 and the IC50 is 17.4 nM.

`Cc1sc(C(=O)Nc2cc(Cl)cc(NS(C)(=O)=O)c2)cc1-c1ncc(OC(C)(C)C)cn1` [Example 559]: the “DHX9 Biochemical Max Inhibition” value is given as 72.175 and the IC50 stood at 33.4 nM.

With `Cc1sc(C(=O)Nc2cc(Cl)cc(NS(C)(=O)=O)c2)cc1-c1ncc(OC(C)CO)cn1` (stereo not shown) [Example 677], the “DHX9 Biochemical Max Inhibition” value turned out to be 75.1 and the IC50 is 6.8 nM.

On to `CS(=O)(=O)Nc1cc(Br)cc(NC(=O)c2cnn(-c3ncccn3)c2)c1` [Example 50, N-(3-bromo-5-(methylsulfonamido)phenyl)-1-(pyrimidin-2-yl)-1H-pyrazole-4-carboxamide], for which the “DHX9 Biochemical Max Inhibition” value is 55.5% and the IC50 is 45 nM.

Regarding `CCOc1cnc(-c2cc(C(=O)Nc3cc(Cl)cc(NS(=O)(=O)CC)c3)sc2C)nc1` [Example 365], the “DHX9 Biochemical Max Inhibition” value was 78.7% and the IC50 was determined as 20.5 nM.

`COC1CN(c2cnc(-n3cc(C(=O)Nc4cc(Cl)cc(NS(C)(=O)=O)c4)cc3C)nc2)C1` [Example 404]: the “DHX9 Biochemical Max Inhibition” value worked out at 92 and the IC50 came out at 84.5 nM.

For the molecule `CS(=O)(=O)Nc1cc(Cl)cc(NC(=O)c2cnn(-c3ncccc3OCc3cccc(Cl)c3)c2)c1` [Example 70], the “DHX9 Biochemical Max Inhibition” value stood at 78.9% and the IC50 was 8.5 nM.

Regarding `CS(=O)(=O)Nc1cc(Cl)cc(NC(=O)c2cc(-c3ncc(F)cn3)c(C3CC3)s2)c1` [Example 448], the “DHX9 Biochemical Max Inhibition” value is 66.7 and the IC50 came out at 1750 nM.

In the case of `CCOc1ccc(-c2cc(C(=O)Nc3cc(Cl)cc(NS(C)(=O)=O)c3)cn2C)nc1` [Example 572], the “DHX9 Biochemical Max Inhibition” value was determined as 73.3 and the IC50 was found to be 11.2 nM.

For the molecule `Cc1sc(C(=O)Nc2cc(Cl)cc(NS(C)(=O)=O)c2)cc1-c1ncc(OC2CN(C)C2)cn1` [Example 609, N-(3-chloro-5-methanesulfonamidophenyl)-5-methyl-4-{5-[(1-methylazetidin-3-yl)oxy]pyrimidin-2-yl}thiophene-2-carboxamide], the “DHX9 Biochemical Max Inhibition” value was determined as 72.7 and the IC50 worked out at 3 nM.

Consider `CS(=O)(=O)Nc1cc(Cl)cc(NC(=O)c2cc(C(F)(F)F)n(-c3ccc(F)cn3)c2)c1` [Example 267], for which the “DHX9 Biochemical Max Inhibition” value was 66.4% and the IC50 turned out to be 248 nM.

With `Cc1cn2cc(C(=O)Nc3cc(Cl)cc(NS(C)(=O)=O)c3)cc2c(C)n1` [Example 322], the “DHX9 Biochemical Max Inhibition” value is recorded as 65.6% and the IC50 was found to be 215 nM.

Turning to `Cc1cccnc1-n1cc(C(=O)Nc2cc(Cl)cc(NS(C)(=O)=O)c2)cc1C` [Example 130], the “DHX9 Biochemical Max Inhibition” value is reported as 70.4% and the IC50 was determined as 39.6 nM.

`CCn1cc(C(=O)Nc2cc(Cl)cc(NS(C)(=O)=O)c2)cc1-c1ccc(N2CCOCC2)cn1` [Example 274]: the “DHX9 Biochemical Max Inhibition” value is 72.1% and the IC50 was found to be 32.2 nM.

For the molecule `CS(=O)(=O)Nc1cc(Cl)cc(NC(=O)c2cnn(-c3ncc(F)cc3OCc3cccc(C#N)c3)c2)c1` [Example 203], the “DHX9 Biochemical Max Inhibition” value is recorded as 76.5% and the IC50 was 28.1 nM.

Turning to `CC(c1ccccc1)n1cc(C(=O)Nc2cc(Cl)cc(NS(C)(=O)=O)c2)cn1` (stereo not shown) [Example 142, N-(3-chloro-5-(methylsulfonamido)phenyl)-1-(1-phenylethyl)-1H-pyrazole-4-carboxamide], the “DHX9 Biochemical Max Inhibition” value is listed as 62% and the IC50 turned out to be 514 nM.

As for `Cc1cc(C(=O)Nc2cc(Cl)cc(NS(C)(=O)=O)c2)cn1-c1ncc(OC2COC2)cn1` [Example 669], the “DHX9 Biochemical Max Inhibition” value is reported as 80.8 and the IC50 was determined as 1.9 nM.

On to `CCS(=O)(=O)Nc1cc(Cl)cc(NC(=O)c2cc(-c3ncc(F)cc3F)n(C)c2)c1` [Example 543], for which the “DHX9 Biochemical Max Inhibition” value was 60.2 and the IC50 stood at 48.6 nM.

Regarding `CS(=O)(=O)Nc1cc(Cl)cc(NC(=O)c2cnn(-c3ccc(N4CCn5ccnc5C4)cn3)c2)c1` [Example 192], the “DHX9 Biochemical Max Inhibition” value was found to be 72.6% and the IC50 came to 16.5 nM.

Consider `CCS(=O)(=O)Nc1cc(Cl)cc(NC(=O)c2cc(-c3ncccn3)n(C)c2)c1` [Example 173, N-(3-chloro-5-(ethylsulfonamido)phenyl)-1-methyl-5-(pyrimidin-2-yl)-1H-pyrrole-3-carboxamide], for which the “DHX9 Biochemical Max Inhibition” value was 61.3% and the IC50 is 8.6 nM.

For the molecule `CS(=O)(=O)Nc1cc(Cl)cc(NC(=O)c2cc(-c3ccc(N4CC5(COC5)C4)cn3)n(CC(F)(F)F)c2)c1` [Example 278], the “DHX9 Biochemical Max Inhibition” value is 74.1% and the IC50 is 44.2 nM.

For `Cn1cc(C(=O)Nc2cc(Cl)cc(NS(C)(=O)=O)c2)cc1-c1ncc(F)cc1OCc1cnnn1C` [Example 726], the “DHX9 Biochemical Max Inhibition” value is 88.1 and the IC50 was determined as 17.5 nM.

For the molecule `CS(=O)(=O)Nc1cc(Cl)cc(NC(=O)c2cnn(-c3ncccc3OCc3ccncc3)c2)c1` [Example 64], the “DHX9 Biochemical Max Inhibition” value was found to be 61.8% and the IC50 turned out to be 59.9 nM.

Regarding `CS(=O)(=O)Nc1cc(Br)cc(NC(=O)c2cnn(-c3cnccn3)c2)c1` [Example 40], the “DHX9 Biochemical Max Inhibition” value is reported as 60% and the IC50 was found to be 15.7 nM.

Take `CCS(=O)(=O)Nc1cc(Cl)cc(NC(=O)c2cc(-c3cccnc3)cs2)c1` [Example 110]: the “DHX9 Biochemical Max Inhibition” value was found to be 53.7% and the IC50 amounted to 40 nM.

As to `COc1cnc(-c2cc(C(=O)Nc3cc(Cl)cc(NS(C)(=O)=O)c3)cn2C)nc1` [Example 549], the “DHX9 Biochemical Max Inhibition” value is given as 73.6 and the IC50 was determined as 19 nM.

With `CCS(=O)(=O)Nc1cc(Cl)cc(NC(=O)c2cc(-c3ncc(F)cc3OCc3cncnc3)c(C)s2)c1` [Example 623], the “DHX9 Biochemical Max Inhibition” value is on record as 94.5 and the IC50 amounted to 3.9 nM.
